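A five-concentration, 48-hour dose response in 96-well plates underlies each endpoint, interpolated linearly between surrounding concentrations. Here, GI50 denotes the concentration required for 50% inhibition of growth.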 Activity calls are given as the source filed them. No stated cut-off is given here; in the data, active = GI50 up to about 1.1 µM and inactive = higher.
Tests used:
Test in all cases: growth of human tumour cells (NCI), 48 h
SR = system: SR
ACHN = system: ACHN
Malme-3M = system: Malme-3M
NCI-H23 = system: NCI-H23
HOP-92 = system: HOP-92
NCI-H522 = system: NCI-H522
SK-OV-3 = system: SK-OV-3
SN12C = system: SN12C
HCT-15 = system: HCT-15
U-251 = system: U-251
NCI-H460 = system: NCI-H460
SF-295 = system: SF-295
NCI-H226 = system: NCI-H226
HL-60 = system: HL-60
CCRF-CEM = system: CCRF-CEM
OVCAR-5 = system: OVCAR-5
SNB-19 = system: SNB-19
HCC 2998 = system: HCC 2998
SK-MEL-5 = system: SK-MEL-5
A498 = system: A498

| Compound | GI50 (SR) | GI50 (ACHN) | GI50 (Malme-3M) | GI50 (NCI-H23) | GI50 (HOP-92) | GI50 (NCI-H522) | GI50 (SK-OV-3) | GI50 (SN12C) | GI50 (HCT-15) | GI50 (U-251) | GI50 (NCI-H460) | GI50 (SF-295) | GI50 (NCI-H226) | GI50 (HL-60) | GI50 (CCRF-CEM) | GI50 (OVCAR-5) | GI50 (SNB-19) | GI50 (HCC 2998) | GI50 (SK-MEL-5) | GI50 (A498) |
| --- | --- | --- | --- | --- | --- | --- | --- | --- | --- | --- | --- | --- | --- | --- | --- | --- | --- | --- | --- | --- |
| Cc1nc(=O)[nH]c2[nH][nH]c(=O)c12 | > 100 µM (inactive) | > 100 µM (inactive) | > 100 µM (inactive) | > 100 µM (inactive) | > 100 µM (inactive) | > 100 µM (inactive) | > 100 µM (inactive) | > 100 µM (inactive) | > 100 µM | > 100 µM (inactive) | > 100 µM (inactive) | > 100 µM (inactive) | > 100 µM (inactive) | > 100 µM (inactive) | > 100 µM (inactive) | > 100 µM (inactive) | – | – | – | – |
| Cc1ccc(S(=O)(=O)c2ccccn2)cc1 | – | > 100 µM (inactive) | > 100 µM (inactive) | > 100 µM (inactive) | > 100 µM (inactive) | > 100 µM (inactive) | > 100 µM (inactive) | > 100 µM (inactive) | > 100 µM | > 100 µM (inactive) | > 100 µM (inactive) | > 100 µM (inactive) | > 100 µM (inactive) | > 100 µM (inactive) | > 100 µM (inactive) | 46.5 µM (inactive) | > 100 µM (inactive) | > 100 µM (inactive) | > 100 µM (inactive) | > 100 µM (inactive) |
| O=C1NC2(CCCC2)C(=O)C12CCCC2 | > 100 µM (inactive) | > 100 µM (inactive) | > 100 µM (inactive) | > 100 µM (inactive) | > 100 µM (inactive) | > 100 µM (inactive) | > 100 µM (inactive) | > 100 µM (inactive) | > 100 µM | > 100 µM (inactive) | > 100 µM (inactive) | > 100 µM (inactive) | – | > 100 µM (inactive) | > 100 µM (inactive) | > 100 µM (inactive) | > 100 µM (inactive) | – | > 100 µM (inactive) | > 100 µM (inactive) |
| C=CCN1C(=O)C[C@H](Cc2ccccc2)NC(=O)C[C@H](Cc2ccccc2)N(CC=C)C(=O)C[C@H](Cc2ccccc2)NC(=O)C[C@@H]1Cc1ccccc1 | 5.16 µM (inactive) | – | 3.81 µM (inactive) | > 100 µM (inactive) | 4.48 µM (inactive) | – | 34 µM (inactive) | 5.7 µM (inactive) | 12.2 µM | 12.9 µM (inactive) | 5.42 µM (inactive) | 23.6 µM (inactive) | 14 µM (inactive) | 3.35 µM (inactive) | 4.76 µM (inactive) | > 100 µM (inactive) | > 100 µM (inactive) | – | 20.7 µM (inactive) | 7.01 µM (inactive) |
| NC(=O)CNC(=O)[C@@H]1CC(OCCC(=O)O)CN1C(=O)C1CCCN1C(=O)OCc1ccccc1 (some centres not stated) | > 100 µM (inactive) | > 100 µM (inactive) | > 100 µM (inactive) | > 100 µM (inactive) | – | > 100 µM (inactive) | > 100 µM (inactive) | > 100 µM (inactive) | > 100 µM | > 100 µM (inactive) | > 100 µM (inactive) | > 100 µM (inactive) | > 100 µM (inactive) | > 100 µM (inactive) | > 100 µM (inactive) | > 100 µM (inactive) | > 100 µM (inactive) | – | > 100 µM (inactive) | > 100 µM (inactive) |
| COCCN(CCNC(=O)c1cccc2c(N)c3cccc(C)c3nc12)CCOC | – | 0.681 µM (active) | 0.695 µM (active) | 0.78 µM (active) | 6.5 µM (inactive) | 0.165 µM (active) | 5.16 µM (inactive) | 0.582 µM (active) | 1.82 µM | 3.47 µM (inactive) | 0.302 µM (active) | 2.77 µM (inactive) | 1.03 µM (active) | 0.794 µM (active) | 1.14 µM (inactive) | 2.2 µM (inactive) | 2.48 µM (inactive) | 0.294 µM (active) | 0.951 µM (active) | 2.78 µM (inactive) |
